Experimental findings from PubChem BioAssay (NCI) are described below.

Some test systems named below: EKVX NSCLC; HOP-62 NSCLC; MDA-N; NCI-H226 lung; RPMI-8226 leukemia; SF-268 CNS; SF-295 CNS; SNB-75 CNS; TK-10 renal; UACC-62 melanoma.
Holding throughout (assay): inhibition of tumour cell growth, NCI panel, 48 h

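Cultured in 96-well plates, cells were exposed to test compound for 48 hours across five concentrations. TGI marks complete inhibition of growth.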

Turning to `CCOC(=O)CN1CC(C2=C(O)CN(CC(=O)OCC)C2=O)=CC1=O`, the TGI in the test with EKVX NSCLC, in the test on HOP-62 NSCLC, with MDA-N, in the test with NCI-H226 lung, in the test on RPMI-8226 leukemia and with SF-268 CNS was more than 100 µM in each case. Moreover, the TGI in the test with SF-295 CNS, in the test with SNB-75 CNS, in the test on TK-10 renal and in the test with UACC-62 melanoma was more than 100 µM in each case.

For the molecule `Cc1ccc(S(=O)(=O)N/N=C2/CC3CCC4CC2CC34)cc1` (stereo not given), the TGI in the test with EKVX NSCLC, in the test on HOP-62 NSCLC, in the test with MDA-N, in the test on NCI-H226 lung, with RPMI-8226 leukemia and in the test with SF-268 CNS was more than 100 µM throughout. Further, the TGI in the test on SF-295 CNS, in the test on SNB-75 CNS, with TK-10 renal and in the test with UACC-62 melanoma was more than 100 µM in each case.

Turning to `O=C(Nc1sccc1S(=O)(=O)c1ccccc1)c1ccccc1`, the TGI in the test with EKVX NSCLC, in the test with HOP-62 NSCLC, in the test on MDA-N, with NCI-H226 lung, in the test with RPMI-8226 leukemia and in the test on SF-268 CNS was more than 100 µM in each case. The TGI in the test with SF-295 CNS, in the test with SNB-75 CNS, in the test on TK-10 renal and in the test with UACC-62 melanoma was more than 100 µM in each case.

Turning to `NC(=O)c1c(NC=O)ncn1C1OCC(O)C(O)C1O` (stereo not given), the TGI with EKVX NSCLC, in the test on HOP-62 NSCLC, with MDA-N, in the test with NCI-H226 lung, in the test on RPMI-8226 leukemia and in the test with SF-268 CNS was more than 100 µM each time. The TGI with SF-295 CNS, with SNB-75 CNS, with TK-10 renal and in the test on UACC-62 melanoma was more than 100 µM throughout.

In the case of `N#C/C(N)=C(\C#N)N=CNc1ccc(N)cc1`, the TGI in the test on EKVX NSCLC, in the test on HOP-62 NSCLC, with MDA-N, in the test with NCI-H226 lung, in the test on RPMI-8226 leukemia and with SF-268 CNS was more than 100 µM in each case. For the same molecule, the TGI in the test with SF-295 CNS, in the test with SNB-75 CNS, in the test with TK-10 renal and in the test with UACC-62 melanoma was more than 100 µM each time.

With `NC(=Nc1cccc(Cl)c1)c1ccccc1N`, the TGI in the test on EKVX NSCLC, in the test on HOP-62 NSCLC, in the test on MDA-N, in the test on NCI-H226 lung, in the test on RPMI-8226 leukemia and with SF-268 CNS was more than 100 µM throughout. Also, the TGI with SF-295 CNS, with SNB-75 CNS, in the test with TK-10 renal and in the test with UACC-62 melanoma was more than 100 µM in each case.

As to `CN(C)c1cccc2c1C(=O)C=CC21CCc2ccc(N(C)C)c3c(N(C)C)ccc1c23` (stereo not given), the TGI in the test with EKVX NSCLC was determined as 63.1 µM; with HOP-62 NSCLC it was 32.8 µM; in the test with MDA-N it was 28.6 µM; in the test with NCI-H226 lung it was 33 µM; in the test on RPMI-8226 leukemia, 58.6 µM; with SF-268 CNS, 33.8 µM. Further, the TGI came to 43.1 µM in the test with SF-295 CNS, 19.2 µM with SNB-75 CNS, 28.1 µM in the test on TK-10 renal and 26.9 µM in the test with UACC-62 melanoma.

As for `O=C1CCCCC/C1=C\c1ccccc1`, the TGI with EKVX NSCLC, in the test on HOP-62 NSCLC, in the test on MDA-N, in the test on NCI-H226 lung, in the test with RPMI-8226 leukemia and with SF-268 CNS was more than 100 µM each time. For the same molecule, the TGI with SF-295 CNS, with SNB-75 CNS, in the test with TK-10 renal and in the test with UACC-62 melanoma was more than 100 µM throughout.

`Cc1cccc2c(N)c3cccc(C(=O)NCC[N+]4(Cc5ccc([N+](=O)[O-])cc5)CCOCC4)c3nc12`: the TGI with EKVX NSCLC, in the test with HOP-62 NSCLC, in the test on MDA-N, with NCI-H226 lung, with RPMI-8226 leukemia and in the test with SF-268 CNS was more than 100 µM each time. The TGI in the test on SF-295 CNS is more than 100 µM; in the test on SNB-75 CNS, 63 µM; in the test with TK-10 renal it was more than 100 µM; in the test on UACC-62 melanoma, more than 100 µM.

As to `COC(=O)[C@@H]1CC(C(CN)c2cn(C(=O)OC(C)(C)C)c3ccccc23)C(=O)N1C(=O)OC(C)(C)C` (stereo not given in full), the TGI in the test on EKVX NSCLC is 53.8 µM; in the test with HOP-62 NSCLC, more than 100 µM; in the test with MDA-N, 69.6 µM; in the test with NCI-H226 lung, 97.8 µM; in the test on RPMI-8226 leukemia, 24.1 µM; in the test with SF-268 CNS, more than 100 µM. In addition, the TGI in the test on SF-295 CNS is 45.2 µM; in the test with SNB-75 CNS it was 33.8 µM; with TK-10 renal, more than 100 µM; in the test with UACC-62 melanoma, 28.8 µM.

Take `CSc1c(CC(=O)Nc2ccc(Cl)cc2)n(Cc2ccccc2)c2ccccc12`: the TGI in the test with EKVX NSCLC is more than 100 µM; with HOP-62 NSCLC it was more than 100 µM; in the test on MDA-N, more than 100 µM; with NCI-H226 lung it was 71.8 µM; with RPMI-8226 leukemia, more than 100 µM; with SF-268 CNS, more than 100 µM. Besides, the TGI was more than 100 µM in the test on SF-295 CNS, 33.1 µM with SNB-75 CNS, 57.4 µM in the test with TK-10 renal and more than 100 µM with UACC-62 melanoma.

With `CC(C)(C)OC(=O)CN1CCN(CC(=O)N2CCN(C(=O)OCc3ccccc3)CC2)CCN(CC(=O)OC(C)(C)C)CCN(CC(=O)N2CCN(C(=O)OCc3ccccc3)CC2)CC1`, the TGI in the test with EKVX NSCLC was found to be 34.3 µM; in the test on HOP-62 NSCLC, 16.4 µM; in the test with MDA-N, 7.65 µM; with NCI-H226 lung it was 22.8 µM; in the test on RPMI-8226 leukemia, 2.91 µM; in the test on SF-268 CNS, 7.34 µM. The TGI in the test with SF-295 CNS is 13.8 µM; with SNB-75 CNS, 4.75 µM; in the test with TK-10 renal, 15.9 µM; in the test with UACC-62 melanoma, 7.59 µM.

For the molecule `C=CCN(c1cc(OC)c2[nH]c(C(=O)OCC)c(C)c2c1[N+](=O)[O-])S(C)(=O)=O`, the TGI in the test with EKVX NSCLC was 46.2 µM; in the test on HOP-62 NSCLC it was more than 100 µM; in the test with MDA-N, 52.7 µM; with NCI-H226 lung, 25.3 µM; with RPMI-8226 leukemia, 32.8 µM; with SF-268 CNS, more than 100 µM. The TGI is more than 100 µM with SF-295 CNS, 60 µM with SNB-75 CNS, more than 100 µM in the test with TK-10 renal and 61.7 µM in the test on UACC-62 melanoma.

For the molecule `CCn1c2ccccc2c2ccc(C3C(C(=O)OC)=C(C)NC(C)=C3C(=O)OC)cc21`, the TGI in the test with EKVX NSCLC is more than 100 µM; in the test with HOP-62 NSCLC, more than 100 µM; in the test on MDA-N, more than 100 µM; in the test with NCI-H226 lung, more than 100 µM; in the test with RPMI-8226 leukemia, 80.8 µM; in the test with SF-268 CNS, more than 100 µM. Besides, the TGI in the test with SF-295 CNS, in the test with SNB-75 CNS, with TK-10 renal and in the test with UACC-62 melanoma was more than 100 µM each time.

For `Cc1ccc(O)c(C2=CC(c3cccc(Br)c3)SC(N)=N2)c1` (stereo not given), the TGI with EKVX NSCLC turned out to be 59.9 µM; in the test with HOP-62 NSCLC, 52 µM; in the test on MDA-N it was 50.1 µM; in the test with NCI-H226 lung, 71.5 µM; in the test with RPMI-8226 leukemia, 49.8 µM; in the test with SF-268 CNS, 88.9 µM. Also, the TGI with SF-295 CNS is 42.2 µM; with SNB-75 CNS it was 61.3 µM; in the test with TK-10 renal, 46.1 µM; in the test on UACC-62 melanoma it was 34.5 µM.

Regarding `COc1ccc2c3c1OC1C34CCN(C)C(C2)C4=CC(I)C1(OC)OC` (stereo not given), the TGI in the test on EKVX NSCLC was 33.8 µM; in the test with HOP-62 NSCLC, 20.8 µM; in the test on MDA-N it was 18.8 µM; in the test on NCI-H226 lung it was 59.3 µM; in the test on RPMI-8226 leukemia it was 14.2 µM; with SF-268 CNS it was 42.8 µM. Further, the TGI in the test with SF-295 CNS was more than 100 µM; in the test with SNB-75 CNS, 34.5 µM; with TK-10 renal it was 27.8 µM; in the test with UACC-62 melanoma it was 28 µM.

`CC[P+]1(c2ccccc2)[C@@H](C)CC[C@@H]1C`: the TGI with EKVX NSCLC, in the test on HOP-62 NSCLC, in the test with MDA-N, in the test with NCI-H226 lung, in the test with RPMI-8226 leukemia and in the test with SF-268 CNS was more than 100 µM throughout. Moreover, the TGI in the test with SF-295 CNS, with SNB-75 CNS, in the test on TK-10 renal and in the test with UACC-62 melanoma was more than 100 µM in each case.

As to `COc1cccc2cc(C(C)=O)c(=O)oc12`, the TGI in the test on EKVX NSCLC, with HOP-62 NSCLC, with MDA-N, in the test on NCI-H226 lung, in the test on RPMI-8226 leukemia and with SF-268 CNS was more than 100 µM each time. Besides, the TGI in the test on SF-295 CNS, in the test on SNB-75 CNS, with TK-10 renal and in the test on UACC-62 melanoma was more than 100 µM each time.

On to `COc1ccc2nc3n(c2c1)C(=O)c1ccccc1-3`, for which the TGI in the test on EKVX NSCLC, in the test with HOP-62 NSCLC, in the test on MDA-N, in the test on NCI-H226 lung, with RPMI-8226 leukemia and in the test with SF-268 CNS was more than 100 µM in each case. Besides, the TGI with SF-295 CNS, in the test with SNB-75 CNS, in the test on TK-10 renal and with UACC-62 melanoma was more than 100 µM each time.
